Data: patent US4455441A, “Attractant termiticidal compounds, compositions and methods of use therefor” (Research Foundation of State University of New York, priority 1982, dated 1984)
Read-outs that look alike come from different tables or passages of the source.

How the values were obtained:
Reticulitermes flavipes = assay: Bioassay of fluoroalkanols (Petri dish assay), termite toxicity; assay type: in vivo, Reticulitermes flavipes Kollar; details: quantity impregnated in filter pads required to cause 50% mortality at 3 days
Protocol: Test compounds were dissolved in dry diethyl ether or dichloromethane and a 1.0 ml portion of the solution was pipetted onto a Gelman sterile 47-mm cellulose pad (Howard and Haverty, 1979). The ether was allowed to evaporate for 10 min, 1.0 ml of distilled water was added to the pad, and the pad was placed in a tight-sealing Gelman 50-mm plastic Petri dish.
Termites (Reticulitermes flavipes Kollar) were collected from rotten logs and tree stumps on the Stony Brook campus. Colonies were kept in trash cans in an insectary (85% RH, 27° C.) for a period of about 6 months before use in this experiment. The experiments were performed in an incubator at +28° C. Undifferentiated larvae above the third instar ("workers") were used in all toxicity tests. Termites were first shaken loose from the interior of the wood, then transferred using mouth aspirators and with soft forceps. The termites were held on filter paper for 24 hours, twenty healthy termites were added to each dish, and the number of dead which were then removed to prevent cannibalism was recorded at daily intervals.
^c Quantity of fluoro compound impregnated in filter pads required to
cause 50% mortality at 3 days.

mice = details: based on Pattison (1959), cited from earlier work
termites [1] = assay: Maximum attractiveness (above 50% level); assay type: in vivo
termites [2] = assay: Trail activity (trail following by termites); assay type: in vivo; details: at 5 × 10^-6 g/10 c (highest conc. tested)
Text: ^a Value is minimum quantity (in grams) per 10 cm required to elicit
trailfollowing by a total of 8/20 termites in four trails.
^b Maximum number of termites following at 5 × 10^-6 g/10 c
(highest conc. tested).

[3] = estimate from comparison compound C12 satd.
[4] = estimate from comparison compound C18 satd.
[5] = saturated omega-fluoro compound

| Molecule | Median Lethal-dose (Reticulitermes flavipes) | Estimated LD50 (mice) (mice; [3]) [mg/kg] | Estimated LD50 (mice) (mice; [4]) [mg/kg] | Estimated LD50 (mice) (mice; estimate from comparison compound C10 satd.) [mg/kg] | Maximum attractiveness (above 50% level) (termites [1]) | Maximum attractiveness (above 50% level), minimum (termites [1]; minimum) | Estimated LD50 (mice) (mice; [5]) [mg/kg] | Trail activity, maximum number of termites following (termites [2]) |
| --- | --- | --- | --- | --- | --- | --- | --- | --- |
| 16-fluoro-Z/E 9-hexadecen-1-ol | 0.020 mg/dish | 1.5 | 4.0 |  |  |  |  |  |
| OCC/C=C\CCCCCCF [10-fluoro-(Z)-3-decen-1-ol] | .0095 mg/dish |  |  | 1.0 |  |  |  |  |
| OCC/C=C\CCCCCCCCF [12-Fluoro-(Z)-3-dodecen-1-ol] | .0093 mg/dish | 1.5 |  |  | 10^-7 9 |  |  |  |
| OCC/C=C\C/C=C\CCCCCF [12-fluoro-(Z),(Z)-3,6-dodecadien-1-ol] | .012 mg/dish | 1.5 |  |  | 10^-7 9 | 10^-8 |  |  |
| OCCCCCCCC/C=C/CCCCCCF [16-fluoro-Z/E 9-hexadecen-1-ol] | 0.024 mg/dish | 1.5 | 4.0 |  |  |  |  |  |
| OCCCCCCCCCCCF [F(CH2)10 CH2 OH] | .062 mg/dish |  |  |  |  |  | > 100 | 6/20 |
| OCCCCCCCCCCCCF [F(CH2)11 CH2 OH, 12-fluorododecan-1-ol] | .0077 mg/dish |  |  |  |  |  | 1.5 | 6/20 |
